Article PMC11732441, “Biased constitutive signaling of the G protein-coupled receptor GPR35 suppresses gut barrier permeability [drawing 1]” (The Journal of Biological Chemistry, 2024)

What was measured:
hGPR35a [1] = molecular target: T1, hGPR35a (Homo sapiens, UniProt Q9HC97); assay: BRET G protein re-association (inverse agonism) in HEK293 cells; effect in HEPG2 cells lost on GPR35 knock-out; format: cell-based
T1 construct: gene GPR35; FLAG-hGPR35a (N-terminal FLAG tag); with Gα13/Gβ3/Gγ9

hGPR35a [2] = molecular target: T1, hGPR35a; assay: BRET G protein dissociation (TRUPATH-like) in Flp-In T-REx […] cells expressing FLAG-hGPR35a; format: cell-based

T1 sequence (Q9HC97 whole entry): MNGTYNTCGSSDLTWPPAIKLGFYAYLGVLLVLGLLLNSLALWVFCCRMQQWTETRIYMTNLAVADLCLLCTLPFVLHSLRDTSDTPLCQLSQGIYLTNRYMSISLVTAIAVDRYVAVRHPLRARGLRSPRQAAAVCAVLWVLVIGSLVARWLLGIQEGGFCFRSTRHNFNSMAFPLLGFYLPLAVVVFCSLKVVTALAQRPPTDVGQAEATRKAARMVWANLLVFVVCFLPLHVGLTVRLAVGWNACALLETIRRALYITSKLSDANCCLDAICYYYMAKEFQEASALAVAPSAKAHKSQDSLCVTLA
T1 sequence (Q14344 whole entry partner): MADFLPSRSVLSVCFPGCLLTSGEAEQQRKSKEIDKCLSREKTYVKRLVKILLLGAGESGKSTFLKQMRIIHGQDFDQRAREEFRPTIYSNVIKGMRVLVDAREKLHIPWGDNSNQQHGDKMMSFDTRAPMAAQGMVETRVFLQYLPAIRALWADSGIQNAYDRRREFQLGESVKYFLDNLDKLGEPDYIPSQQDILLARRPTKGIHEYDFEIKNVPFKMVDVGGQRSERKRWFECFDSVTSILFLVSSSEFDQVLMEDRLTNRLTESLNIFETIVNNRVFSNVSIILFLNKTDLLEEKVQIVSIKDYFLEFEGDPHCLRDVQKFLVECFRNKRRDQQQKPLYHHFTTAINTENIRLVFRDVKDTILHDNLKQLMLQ
T1 sequence (P16520 whole entry partner): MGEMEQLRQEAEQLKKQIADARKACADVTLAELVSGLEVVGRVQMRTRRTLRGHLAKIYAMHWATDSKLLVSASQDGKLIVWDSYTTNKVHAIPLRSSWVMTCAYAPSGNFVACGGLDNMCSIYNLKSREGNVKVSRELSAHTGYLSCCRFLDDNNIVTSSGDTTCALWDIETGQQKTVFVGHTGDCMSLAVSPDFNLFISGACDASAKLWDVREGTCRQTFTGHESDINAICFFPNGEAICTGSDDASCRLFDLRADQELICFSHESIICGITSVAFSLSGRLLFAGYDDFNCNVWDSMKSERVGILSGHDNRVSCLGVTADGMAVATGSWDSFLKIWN
T1 sequence (O14610 1-66 partner): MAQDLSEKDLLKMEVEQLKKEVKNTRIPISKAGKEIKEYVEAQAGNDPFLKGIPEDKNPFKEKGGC

| EC50 (hGPR35a [2]) [nM] | Structure (SMILES) | BRET G protein re-association (inverse agonism) in HEK293 cells; effect in HEPG2 (hGPR35a [1]) |
| --- | --- | --- |
|  | COC(=O)c1cnn(-c2ccc(F)cc2F)c1C=NNC(=S)NC(C)(C)C [CID-2745687] | the BRET signal induced by CID-2745687 increased with receptor plasmid amount |
| 1.48 | N#Cc1cc(NC(=O)C(=O)O)c(Cl)c(NC(=O)C(=O)O)c1 [lodoxamide] |  |
